Data reported in US7214771B2, “Nucleic acid and protein expression thereby and their involvement in stress” (University of Medicine & Dentistry of New Jersey, priority 1999, dated 2007).

What was measured:
[1] = test system: RIAZ; test: Localization of GFP/RIAZ in HTB-46 cells cotransfected with RIα (fluorescence microscopy); assay type: cell-based, human; settings: HTB-46 cells cotransfected with RIα and GFP/RIAZ; cAMP for 8 hr
Description: FIG. 10 depicts the effect of RIα and cAMP on localization of RIAZ. GJP fusions at the N-terminus (GFP/RIAZ) and the C-terminus (RIAZ/GFP) were generated. […] Localization of GFP/RIAZ on co-transfection with RIα is redistributed to the nucleus on addition of cAMP(Panel D). In more detail, nuclear localization of RIAZ and regulation of its localization by RIα in the presence or absence of cAMP was performed as follows: (A,B) HTB-46 cells were plated the night before and then transfected with GFP/RIAZ the following day. Localization of RIAZ was visualized 24 hr after transfection using a fluorescence microscope. (C) HTB-46 cells were cotransfected with RIα and GFP/RIAZ in the absence of cAMP. (D) RIAZ distribution after addition of cAMP for 8 hr.
To further understand the mechanisms of interaction of RIα with RIAZ, we constructed a hybrid protein between RIAZ and the green fluorescence protein (GFP), with GFP fused to either the N-terminal (GFP/RIAZ) or the C-terminal (RIAZ/GFP) end of RIAZ. Distribution of RIAZ was visualized using a Zeiss Axioskop fluorescence microscope. […] Even though the nuclear localization of RIAZ was not affected by the position of GFP either at the amino or the carboxy terminal end of RIAZ, however, whether the transcriptional activity of RIAZ may be affected remains to be determined. […]

[2] = test system: human ovarian cancer cells; settings: cited from earlier work
[3] = test system: human bladder cancer and human testicular embryonal germ cell carcinoma; settings: simultaneous cisplatin and dipyridamole; high concentrations of dipyridamole; cited from earlier work
[4] = biological target: T1, RIα (Homo sapiens, UniProt P10644); test: Binding of in vitro-translated RIAZ to immobilized GST-RIα (pull down); settings: [35S]methionine labeled RIAZ; GST as control
T1 construct: made in house; host or cells: E. coli (GST-RIα); RIAZ made by in vitro translation
Description: FIG. 8. Binding of in-vitro translated RIAZ protein to RIα. GST and GST-RIα proteins were immobilized on glutathione resins and then incubated with [^35S]methinine labeled RIAZ. The complexes were thoroughly washed and eluted in gel-loading buffer, separated by SDS-PAGE, and exposed to X-ray film.
Deletion of a cluster of ATG in the 5′ end of the RIAZ cDNA seemed to enhance translation from the putative ATG start codon of the open reading frame that encode the BTB-POZ domain zinc finger. […] In addition, based on the functions of other BTB-POZ zinc finger proteins in this family, which play various roles in apoptosis, transcription repression, and regulation of cell proliferation, we speculate that RIAZ may have a role in these important cellular functions. Since the emergence of drug resistance in cancer is also intimately influenced by apoptosis, alterations in cellular transcription programs and tumorigenesis, therefore, it is conceivable that RIα mediated drug resistance may be executed through the actions of RIAZ. Biochemical and molecular characterizations of the interaction of RIAZ with RI and its function and significance in drug resistance may yield insights into the mechanisms of this novel cAMP signaling pathway.

T1 sequence (P10644 whole entry): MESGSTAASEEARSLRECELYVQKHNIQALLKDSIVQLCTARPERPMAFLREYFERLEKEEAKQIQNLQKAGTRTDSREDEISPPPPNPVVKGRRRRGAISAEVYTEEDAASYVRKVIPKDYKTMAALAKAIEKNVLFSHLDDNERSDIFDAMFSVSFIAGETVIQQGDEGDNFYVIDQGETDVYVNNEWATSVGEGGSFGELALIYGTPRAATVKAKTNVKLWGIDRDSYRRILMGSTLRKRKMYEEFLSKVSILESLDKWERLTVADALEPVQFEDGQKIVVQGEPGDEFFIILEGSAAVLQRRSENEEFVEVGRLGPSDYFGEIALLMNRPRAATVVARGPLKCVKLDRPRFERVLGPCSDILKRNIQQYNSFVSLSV

For Nc1ncnc2c1nc(Br)n2[C@@H]1O[C@@H]2COP(=O)(O)O[C@H]2[C@H]1O [8-Br-cAMP], the “RIAZ subcellular distribution after treatment” value [1] was “translocate to the nucleus”.

For CC(C)Cn1c(=O)n(C)c(=O)c2[nH]cnc21 [3-isobutyl-1-methylxanthine], the “effect on cisplatin sensitivity” value ([2]; treated ovarian carcinoma cells compared to untreated cells) is given as “increase in cisplatin sensitivity”.

In the case of OCCN(CCO)c1nc(N2CCCCC2)c2nc(N(CCO)CCO)nc(N3CCCCC3)c2n1 [dipyridamole], the “effect on growth of cisplatin-resistant cells” value ([2]; dipyridamole treatment, cisplatin-resistant cells) is given as “did not affect the growth” and the “tumor response in combination with cisplatin” value [3] is given as “complete tumor regression”.

B1: RIAZ: novel BTB-POZ domain zinc finger protein of 641 amino acids, SEQ ID NO: 17 (protein, listed as Homo sapiens)
chain: MERVNDASCGPSGCYTYQVSRHSTEMLHNLNQQRKNGGRFCDVLLRVGDESFPAHRAVLAACSEYFESVFSAQLGDGGAADGGPADVGGATAAPGGGAGGSRELEMHTISSKVFGDILDFAYTSRIVVRLESFPELMTAAKFLLMRSVIEICQEVIKQSNVQILVPPARADIMLFRPPGTSDLGFPLDMTNGAALAANSNGIAGSMQPEEEAARAAGAAIAGQASLPVLPGVDRLPMVAGPLSPQLLTSPFPSVASSAPPLTGKRGRGRPRKANLLDSMFGSPGGLREAGILPCGLCGKVFTDANRLRQHEAQHGVTSLQLGYIDLPPPRLGENGLPISEDPDGPRKRSRTRKQVACEICGKIFRDVYHLNRHKLSHSGEKPYSCPVCGLRFKRKDRMSYHVRSHDGSVGKPYICQSCGKGFSRPDHLNGHIKQVHTSERPHKCQTCNASFATRDRLRSHLACHEDKVPCQVCGKYLRAAYMADHLKKHSEGPSNFCSICNREGQKCSHQDPIESSDSYGDLSDASDLKTPEKQSANGSFSCDMAVPKNKMESDGEKKYPCPECGSFFRSKSYLNKHIQKVHVRALGGPLGDLGPALGSPFSPQQNMSLLESFGFQIVQSAFASSLVDPEVDQQPMGPEGK
In the case of B1, the “binding to GST-RIα” value [4] is reported as “showed binding to GST-RIα but not to GST control”.
